Patent publication US10456387B2, “Phacetoperane for treating of attention deficit hyperactivity disorder” (NLS PHARMA AG, priority 2011, dated 2019)

Tests used:
young Wistar rats [1] = assay: T-maze test, a model of ADHD (ability to wait / impulsiveness); format: in vivo, rat; settings: for Effect on ability to wait relative to the control: administered IP before the test, BLK-010 1 mg/kg; for Effect on ability to wait relative to the control / Mean, Medication (choices of the large reward deferred by 30 s) / Mean, Cont-Post (choices of the large reward deferred by 30 s): methylphenidate 3 mg/kg; for Mean, Medication (choices of the large reward deferred by 30 s): medication sessions, IP 30 min before test; for Mean, Cont-Post (choices of the large reward deferred by 30 s): post-medication control sessions, one day after medication session 2, phacetoperane 1 mg/kg IP; for Mean, Cont-Pre (choices of the large reward deferred by 30 s): pre-medication control sessions, before any drug, male juvenile Wistar rats, n = 6, sessions of 5 tests; for Efficacy compared with methylphenidate in the ability to wait: BLK-010 1 mg/kg IP vs methylphenidate 3 mg/kg IP
young Wistar rats [2] = settings: background description of the model; cited from earlier work

SMILES	Effect on ability to wait relative to the control (young Wistar rats [1])	Mean, Medication (choices of the large reward deferred by 30 s) (young Wistar rats [1]; phacetoperane 1 mg/kg, n = 6)	Mean, Cont-Post (choices of the large reward deferred by 30 s) (young Wistar rats [1]; n = 6)	Mean, Cont-Pre (choices of the large reward deferred by 30 s) (young Wistar rats [1])	Effect on number of times the large but deferred reward is chosen (young Wistar rats [2])	Efficacy compared with methylphenidate in the ability to wait (young Wistar rats [1])	Efficacy compared with methylphenidate in the ability to wait (young Wistar rats [1]; listed as BLK-010)	Improvement of impulsiveness, animals responding (young Wistar rats [1]; BLK-010 1 mg/kg IP, n = 6)	Habituation (before and after treatment) (young Wistar rats [1]; phacetoperane 1 mg/kg)
COC(=O)C(c1ccccc1)C1CCCCN1 (stereo not shown) [Methylphenidate, methylphenidate]	improve the ability to wait	3.67	0.83	1.17	seems to increase the number of times the large but deferred reward is chosen	–	–	–	–
CC(=O)OC(c1ccccc1)C1CCCCN1 (racemic) [Phacetoperane, threo diastereoisomer of alpha-phenyl-2-piperidinemethanol acetate]	improve the ability to wait	4.17	0.33	1.17	–	always found to be more effective than methylphenidate	significantly and statistically more effective than methylphenidate	found in all the animals	does not lead to any habituation
